The structures appear in SMILES notation. pIC50: −log10 of the molar value. Positions of bridges follow the written chain, without caps; N, C: chain ends. Non-standard residues stand in square brackets, D forms with d. Residues, ends and D or L forms follow the SMILES beside them. ξ: configuration not given here. Phe(4-Me) = Cc1ccc(C[C@H](N)C(=O)O)cc1; 4Pal = N[C@@H](Cc1ccncc1)C(=O)O; NMeNle = CCCC[C@H](NC)C(=O)O; NMeA = CN[C@@H](C)C(=O)O; Nle = CCCC[C@H](N)C(=O)O; ξP = O=C(O)C1CCCN1; Sar = CNCC(=O)O

In one experiment the target is T1, Human PD-L1/PD-1 (Homo sapiens, UniProt Q9NZQ7).
T1 construct: made in house; host or cells: HEK293T
T1 sequence (Q9NZQ7 with tags, fused parts or gaps): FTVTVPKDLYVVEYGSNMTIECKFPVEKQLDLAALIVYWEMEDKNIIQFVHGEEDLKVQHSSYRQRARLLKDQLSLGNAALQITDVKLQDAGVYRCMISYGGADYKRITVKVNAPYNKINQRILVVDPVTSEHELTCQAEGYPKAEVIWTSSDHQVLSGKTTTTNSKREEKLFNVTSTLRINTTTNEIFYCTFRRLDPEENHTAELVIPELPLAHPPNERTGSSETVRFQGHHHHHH
Kind of experiment: HTRF PD-1-Ig/PD-L1-His binding assay (human PD-L1). Particulars: Table 8, Compound No. 1 variant macrocyclic peptides; read-out: HTRF Human PD-L1/PD-1 Binding Assay IC50. An excerpt:
The ability of the macrocyclic peptides of the present disclosure to bind to PD-L1 was investigated using a PD-1/PD-L1 Homogenous Time-Resolved Fluorescence (HTRF) binding assay.
Homogenous Time-Resolved Fluorescence (HTRF) Assays of Binding of Soluble PD-1 to Soluble PD-L1. Soluble PD-1 and soluble PD-L1 refers to proteins with carboxyl-end truncations that remove the transmembrane-spanning regions and are fused to heterologous sequences, specifically the Fc portion of the human immunoglobuling G sequence (Ig) or the hexahistidine epitope tag (His). All binding studies were performed in an HTRF assay buffer consisting of dPBS supplemented with 0.1% (w/v) bovine serum albumin and 0.05% (v/v) Tween-20. […] PD-L1 fusion proteins from either human, cynomologous macaques, or mouse were used. HTRF detection was achieved using europium crypate-labeled anti-Ig monoclonal antibody (1 nM final) and allophycocyanin (APC) labeled anti-His monoclonal antibody (20 nM final). Antibodies were diluted in HTRF detection buffer and 5 μl was dispensed on top of binding reaction.
For the compound `CCCC[C@H]1C(=O)N(C)[C@@H](CCCC)C(=O)N[C@@H](CCCNC(=N)N)C(=O)N[C@H](C(=O)NCC(N)=O)CSCC(=O)N[C@@H](Cc2ccccc2)C(=O)N(C)[C@@H](C)C(=O)N[C@@H](CC(N)=O)C(=O)N2CCCC2C(=O)N[C@@H](Cc2cnc[nH]2)C(=O)N[C@@H](CC(C)C)C(=O)N(C)CC(=O)N[C@@H](C)C(=O)N[C@@H](CO)C(=O)N[C@@H](Cc2c[nH]c3ccccc23)C(=O)N1C` (some centres unmarked) [Compound No. 15] ({CH2CO}-F[NMeA]N[ξP]HL[Sar]ASW[NMeNle][NMeNle]RCG-NH2; thioether N-14), the pIC50 is less than 4.52.
Take `CCCC[C@H]1C(=O)N(C)[C@@H](CCCC)C(=O)N[C@@H](C)C(=O)N[C@H](C(=O)NCC(N)=O)CSCC(=O)N[C@@H](Cc2ccccc2)C(=O)N(C)[C@@H](C)C(=O)N[C@@H](CC(N)=O)C(=O)N2CCC[C@H]2C(=O)N[C@@H](Cc2cnc[nH]2)C(=O)N[C@@H](CC(C)C)C(=O)N(C)CC(=O)N[C@@H](Cc2c[nH]c3ccccc23)C(=O)N[C@H](C)C(=O)N[C@@H](Cc2c[nH]c3ccccc23)C(=O)N1C` [Compound No. 60] ({CH2CO}-F[NMeA]NPHL[Sar]W[dA]W[NMeNle][NMeNle]ACG-NH2; thioether N-14): the pIC50 was 7.37.
Still for that read-out and setting: in the case of `CCCC[C@@H]1NC(=O)[C@H](CCCC)N(C)C(=O)[C@H](Cc2c[nH]c3ccccc23)NC(=O)[C@H](CO)NC(=O)[C@H](Cc2c[nH]c3ccccc23)NC(=O)CN(C)C(=O)[C@H](CC(C)C)NC(=O)[C@H](Cc2cnc[nH]2)NC(=O)C2CCCN2C(=O)[C@H](CC(N)=O)NC(=O)[C@H](C)N(C)C(=O)[C@H](Cc2ccccc2)NC(=O)CSC[C@@H](C(=O)NCC(N)=O)NC(=O)[C@H](CCCNC(=N)N)NC1=O` (some centres unmarked) [Compound No. 20] ({CH2CO}-F[NMeA]N[ξP]HL[Sar]WSW[NMeNle][Nle]RCG-NH2; thioether N-14) it was 5.07.
As for `CCCC[C@H]1C(=O)N[C@@H](CCCNC(=N)N)C(=O)N[C@H](C(=O)NCC(N)=O)CSCC(=O)N[C@@H](Cc2ccccc2)C(=O)N(C)[C@@H](C)C(=O)N[C@@H](CC(N)=O)C(=O)N2CCC[C@H]2C(=O)N[C@@H](Cc2cnc[nH]2)C(=O)N[C@@H](CC(C)C)C(=O)N(C)CC(=O)N[C@@H](Cc2c[nH]c3ccccc23)C(=O)N[C@@H](CO)C(=O)N[C@@H](Cc2c[nH]c3ccccc23)C(=O)N(C)[C@@H](CC(C)C)C(=O)N1C` [Compound No. 65] (HELM PEPTIDE1{[O=C(C[*:3])[*:2]].F.[meA].N.P.H.L.[Sar].W.S.W.[meL].[CCCC[C@@H](C(=O)[*:2])N(C)[*:1]].R.C.G.[am]}$PEPTIDE1,PEPTIDE1,1:R3-15:R3$$$V2.0), the pIC50 is 7.37.
On to `CCCC[C@H]1C(=O)N(C)[C@@H](CCCC)C(=O)N[C@@H](CCCNC(=N)N)C(=O)N[C@H](C(=O)NCC(N)=O)CSCC(=O)N[C@@H](Cc2ccccc2)C(=O)N(C)[C@@H](C)C(=O)N[C@@H](CC(N)=O)C(=O)N2CCC[C@H]2C(=O)N[C@@H](Cc2cnc[nH]2)C(=O)N[C@@H](CC(C)C)C(=O)N(C)CC(=O)N[C@@H](Cc2c[nH]c3ccccc23)C(=O)N[C@@H](CO)C(=O)N[C@@H](CCSC)C(=O)N1C` [Compound No. 61] ({CH2CO}-F[NMeA]NPHL[Sar]WSM[NMeNle][NMeNle]RCG-NH2; thioether N-14), for which the pIC50 was 7.51.
In the case of `CCCC[C@H]1C(=O)N(C)[C@@H](C)C(=O)N[C@@H](CCCNC(=N)N)C(=O)N[C@H](C(=O)NCC(N)=O)CSCC(=O)N[C@@H](Cc2ccccc2)C(=O)N(C)[C@@H](C)C(=O)N[C@@H](CC(N)=O)C(=O)N2CCCC2C(=O)N[C@@H](Cc2cnc[nH]2)C(=O)N[C@@H](CC(C)C)C(=O)N(C)CC(=O)N[C@@H](Cc2c[nH]c3ccccc23)C(=O)N[C@@H](CO)C(=O)N[C@@H](Cc2c[nH]c3ccccc23)C(=O)N1C` (some centres unmarked) [Compound No. 21] ({CH2CO}-F[NMeA]N[ξP]HL[Sar]WSW[NMeNle][NMeA]RCG-NH2; thioether N-14), the pIC50 is 7.68.
As to `CCCC[C@H]1C(=O)N(C)[C@@H](CCCC)C(=O)N[C@@H](CCCNC(=N)N)C(=O)N[C@H](C(=O)NCC(N)=O)CSCC(=O)N[C@@H](Cc2ccccc2)C(=O)N(C)[C@@H](C)C(=O)N[C@@H](CC(N)=O)C(=O)N2CCC[C@H]2C(=O)N[C@@H](Cc2c[nH]cn2)C(=O)N[C@@H](CC(C)C)C(=O)N(C)CC(=O)N[C@@H](Cc2c[nH]c3ccccc23)C(=O)N[C@H](CCC(N)=O)C(=O)N[C@@H](Cc2c[nH]c3ccccc23)C(=O)N1C` [Compound No. 59] ({CH2CO}-F[NMeA]NPHL[Sar]W[dQ]W[NMeNle][NMeNle]RCG-NH2; thioether N-14 (inferred)), the pIC50 was less than 5.00.
`CCCC[C@H]1C(=O)N(C)[C@@H](CCCC)C(=O)N[C@@H](CCCNC(=N)N)C(=O)N[C@H](C(=O)NCC(N)=O)CSCC(=O)N[C@@H](Cc2ccccc2)C(=O)N(C)[C@@H](C)C(=O)N[C@@H](CC(N)=O)C(=O)N2CCCC2C(=O)N[C@@H](Cc2cnc[nH]2)C(=O)N[C@@H](C)C(=O)N(C)CC(=O)N[C@@H](Cc2c[nH]c3ccccc23)C(=O)N[C@@H](CO)C(=O)N[C@@H](Cc2c[nH]c3ccccc23)C(=O)N1C` (some centres unmarked) [Compound No. 11] ({CH2CO}-F[NMeA]N[ξP]HA[Sar]WSW[NMeNle][NMeNle]RCG-NH2; thioether N-14): the pIC50 was 7.51.
The same measure, in the same setting: in the case of `CCCC[C@H]1C(=O)N[C@@H](CCCNC(=N)N)C(=O)N[C@H](C(=O)NCC(N)=O)CSCC(=O)N[C@@H](Cc2ccccc2)C(=O)N(C)[C@@H](C)C(=O)N[C@@H](CC(N)=O)C(=O)N2CCC[C@H]2C(=O)N[C@@H](Cc2cnc[nH]2)C(=O)N[C@@H](CC(C)C)C(=O)N(C)CC(=O)N[C@@H](Cc2c[nH]c3ccccc23)C(=O)N[C@@H](CO)C(=O)N[C@@H](Cc2c[nH]c3ccccc23)C(=O)N(C)[C@@H](Cc2ccccc2)C(=O)N1C` [Compound No. 67] (HELM PEPTIDE1{[O=C(C[*:3])[*:2]].F.[meA].N.P.H.L.[Sar].W.S.W.[meF].[CCCC[C@@H](C(=O)[*:2])N(C)[*:1]].R.C.G.[am]}$PEPTIDE1,PEPTIDE1,1:R3-15:R3$$$V2.0) it was 6.97.
Same read-out and setting: in the case of `CCCC[C@H]1C(=O)N(C)[C@@H](CCCC)C(=O)N[C@@H](CCCNC(=N)N)C(=O)N[C@H](C(=O)NCC(N)=O)CSCC(=O)N[C@@H](Cc2ccncc2)C(=O)N(C)[C@@H](C)C(=O)N[C@@H](CC(N)=O)C(=O)N2CCC[C@H]2C(=O)N[C@@H](Cc2cnc[nH]2)C(=O)N[C@@H](CC(C)C)C(=O)N(C)CC(=O)N[C@@H](Cc2c[nH]c3ccccc23)C(=O)N[C@@H](CO)C(=O)N[C@@H](Cc2c[nH]c3ccccc23)C(=O)N1C` [Compound No. 39] ({CH2CO}-[4Pal][NMeA]NPHL[Sar]WSW[NMeNle][NMeNle]RCG-NH2; thioether N-14) it was 7.48; in that of `CCCC[C@H]1C(=O)N(C)[C@@H](CCCC)C(=O)N[C@@H](CCCNC(=N)N)C(=O)N[C@H](C(=O)NCC(N)=O)CSCC(=O)N[C@@H](Cc2ccc(C)cc2)C(=O)N(C)[C@@H](C)C(=O)N[C@@H](CC(N)=O)C(=O)N2CCC[C@H]2C(=O)N[C@@H](Cc2cnc[nH]2)C(=O)N[C@@H](CC(C)C)C(=O)N(C)CC(=O)N[C@@H](Cc2c[nH]c3ccccc23)C(=O)N[C@@H](CO)C(=O)N[C@@H](Cc2c[nH]c3ccccc23)C(=O)N1C` [Compound No. 36] ({CH2CO}-[Phe(4-Me)][NMeA]NPHL[Sar]WSW[NMeNle][NMeNle]RCG-NH2; thioether N-14), 8.05.

Staying with this experiment, now noted: Table 9, Compound No. 71 variant macrocyclic peptides; read-out: HTRF Human PD-L1/PD-1 Binding Assay IC50.
As for `CCCC[C@H]1C(=O)NCC(=O)N[C@@H](CC(=O)O)C(=O)N[C@@H](C(C)C)C(=O)N(C)[C@@H](Cc2ccccc2)C(=O)N[C@@H](Cc2ccc(O)cc2)C(=O)N(C)CC(=O)N[C@@H](Cc2c[nH]c3ccccc23)C(=O)N[C@@H](Cc2ccc(O)cc2)C(=O)N[C@@H](CC(C)C)C(=O)N[C@H](C(=O)NCC(N)=O)CSCC(=O)N[C@@H](Cc2ccccc2)C(=O)N(C)[C@@H](Cc2ccccc2)C(=O)N1C` [Compound No. 78] (HELM PEPTIDE1{[O=C(C[*:3])[*:2]].F.[meF].[CCCC[C@@H](C(=O)[*:2])N(C)[*:1]].G.D.V.[meF].Y.[Sar].W.Y.L.C.G.[am]}$PEPTIDE1,PEPTIDE1,1:R3-14:R3$$$V2.0), the pIC50 was 7.85.
For the compound `CCCC[C@H]1C(=O)N(C)CC(=O)N[C@@H](CC(=O)O)C(=O)N[C@@H](C(C)C)C(=O)N[C@@H](Cc2ccccc2)C(=O)N[C@@H](Cc2ccc(O)cc2)C(=O)N(C)CC(=O)N[C@@H](Cc2c[nH]c3ccccc23)C(=O)N[C@@H](Cc2ccc(O)cc2)C(=O)N[C@@H](CC(C)C)C(=O)N[C@H](C(=O)NCC(N)=O)CSCC(=O)N[C@@H](Cc2ccccc2)C(=O)N(C)[C@@H](Cc2ccccc2)C(=O)N1C` [Compound No. 82] (HELM PEPTIDE1{[O=C(C[*:3])[*:2]].F.[meF].[CCCC[C@@H](C(=O)[*:2])N(C)[*:1]].[Sar].D.V.F.Y.[Sar].W.Y.L.C.G.[am]}$PEPTIDE1,PEPTIDE1,1:R3-14:R3$$$V2.0), the pIC50 was 7.33.

The same experiment, now with this note: cluster symbol; read-out: HTRF IC50 cluster.
As for `CCCC[C@H]1C(=O)N(C)CC(=O)N[C@@H](CC(=O)O)C(=O)N[C@@H](C(C)C)C(=O)N(C)[C@@H](Cc2ccccc2)C(=O)N[C@@H](Cc2ccc(O)cc2)C(=O)N(C)CC(=O)N[C@@H](Cc2c[nH]c3ccccc23)C(=O)N[C@@H](Cc2ccc(O)cc2)C(=O)N[C@@H](CC(C)C)C(=O)N[C@H](C(=O)NCC(N)=O)CSCC(=O)N[C@@H](Cc2ccccc2)C(=O)N(C)[C@@H](Cc2cnc[nH]2)C(=O)N1C` [Example 3056-B] (HELM PEPTIDE1{[O=C(C[*:3])[*:2]].F.[meH].[CCCC[C@@H](C(=O)[*:2])N(C)[*:1]].[Sar].D.V.[meF].Y.[Sar].W.Y.L.C.G.[am]}$PEPTIDE1,PEPTIDE1,1:R3-14:R3$$$V2.0), the pIC50 was 7.52 to 8.17.
